Data taken from publication PMC12521730, “Quantitative dual-isotope preclinical SPECT/CT imaging and biodistribution of the mercury-197m/g theranostic pair with [^197m/gHg]HgCl2 and a [^197m/gHg]Hg-tetrathiol complex as a platform for radiopharmaceutical development” (EJNMMI Radiopharmacy and Chemistry, 2025).

Assay: Ex vivo biodistribution (gamma counter)
Format: in vivo, healthy male C57BL/6 mice
Conditions: 2 h post administration
Procedure: For animal injection, the tracer was prepared at high molar activity. Radiolabeling of H4Tetrathiol (10^–2 M in DMSO; 40 μL for imaging, 20 μL for bioD) (or DMSO, for [^197m/gHg]HgCl2 mice) with [^197m/gHg]HgCl2 (imaging: 26.7 MBq total m + g, 62 μL; bioD: 13.04 MBq total m + g, 31 μL) was performed in a mixture of ammonium acetate buffer (1 M; pH 7; 198 μL for imaging or 149 μL for bioD) and 6 M NaOH (72 μL or 38 μL required to achieve a pH of 7.5 after addition of activity, for imaging or BioD labeling, respectively). The reaction was allowed to stand for 1 h at 37 °C and quantitative (> 99%) non-isolated percentage radiochemical yield (%RCY) was confirmed via the iTLC methods mentioned above. Further, 100 µL of the reaction was diluted with 50 µL of PBS Tween-20 (0.01 M sodium phosphate, 0.15 M NaCl, 0.05% Tween-20) for imaging mice, or 50 µL of the reaction was diluted with 100 µL of PBS Tween-20 for BioD mice. The tracers were prepared immediately before injection to avoid radiolysis and minimize the tracer loss to any surfaces due to its lipophilicity. The injected doses of each isomer, ^197mHg and ^197gHg, were quantified by measuring an aliquot of known volume of each tracer preparation via HPGe gamma spectroscopy and decay corrected for time of injection using the Eqs. (1) and (2).
The study was conducted in compliance with the guidelines set by the Canadian Council on Animal Care (CCAC) and approved by the Animal Care Committee (ACC) at the University of British Columbia (A20-0132). A total of eight healthy male C57BL/6 mice weighing approximately 30 g for group 1 and 25 g for group 2 were used in the study. The mice were divided into two experimental groups: group 1 (n = 4) received free [^197m/gHg]HgCl2, while group 2 (n = 4) received [^197m/gHg]Hg-Tetrathiol. Within each group, one mouse was allocated for imaging, while the rest were designated for ex vivo biodistribution analysis. For SPECT imaging, the designated mice were anesthetized using isoflurane via a precision vaporizer. […] Once anesthetized, each imaging mouse received an intravenous (IV) injection via the lateral tail vein of 150 μL of [^197m/gHg]HgCl2 (0.492 MBq ^197mHg + 3.171 MBq ^197gHg) or [^197m/gHg]Hg-Tetrathiol (0.899 MBq ^197mHg + 4.230 MBq ^197gHg) in PBS Tween-20 (0.01 M Na Phosphate, 0.15 M NaCl, 0.05% Tween-20).
Mice received an IV injection of [^197m/gHg]HgCl2 (0.275 MBq ^197mHg + 1.758 MBq ^197gHg, 150 μL) or [^197m/gHg]Hg-Tetrathiol (0.384 MBq ^197mHg + 1.733 MBq ^197gHg, 150 μL) (n = 3 per group) via the lateral tail vein using a Tailveiner restrainer. After the injection, the mice were returned to their experimental cages and allowed unrestricted movement. Biodistribution studies were conducted 2 h after administration. Mice were humanely euthanized with an overdose of isoflurane followed by cardiac puncture to collect blood pool activity. The organs of interest were fully extracted, cleaned of blood without rinsing, weighed, and analysed for radioactivity using a calibrated gamma counter with the 55–93 keV energy window for ^197gHg and the 110–160 keV energy window for ^197mHg (Packard Cobra II, Perkin Elmer, Waltham, MA, USA). The stomach and intestines were carefully cleaned prior to analysis to remove residual contents. For tissues and fluids that could not be fully removed (muscle, blood and bone) activity values were extrapolated based on standardised organ weights for age- and sex-matched mice tables to ensure accurate normalization (Davies and Morris [1993]; Foster et al. [2014]). The stomach and whole intestines were cleaned before analysis. The radioactivity measurements were decay corrected for time of injection using the Eqs. (1) and (2). The results are reported as the percentage of the injected activity per gram of tissue (%IA/g) and percentage of the injected activity per tissue (%IA/organ).

## [Cl][Hg][Cl] [[^197m/gHg]HgCl2]
Hg-197g
  Animal 4 (%IA/g) g: kidneys: 120 %IA/g
  Animal 4 (%IA/g) g: large intestine: 2.62 %IA/g
  Animal 4 (%IA/g) g: liver: 4.99 %IA/g
  Animal 4 (%IA/g) g: lungs: 3.08 %IA/g
  Animal 4 (%IA/g) g: muscle: 0.53 %IA/g
  Animal 4 (%IA/g) g: pancreas: 1.46 %IA/g
  Animal 4 (%IA/g) g: small intestine: 2.62 %IA/g
  Animal 4 (%IA/g) g: spleen: 3.58 %IA/g
  Animal 4 (%IA/g) g: stomach: 1.76 %IA/g
  Animal 4 (%IA/g) g: tail: 3.76 %IA/g
  Animal 4 (%IA/g) g: urine: 3.49 %IA/g
  Average (%IA/Organ): bladder: 0.06 %IA/Organ
  Average (%IA/Organ): blood: 5.81 %IA/Organ
  Average (%IA/Organ): bone: 4.16 %IA/Organ
  Average (%IA/Organ): brain: 0.05 %IA/Organ
  Average (%IA/Organ): feces: 0.05 %IA/Organ
  Average (%IA/Organ): heart: 0.25 %IA/Organ
  Average (%IA/Organ): kidneys: 48.31 %IA/Organ
  Average (%IA/Organ): large intestine: 0.57 %IA/Organ
  Average (%IA/Organ): liver: 7.78 %IA/Organ
  Average (%IA/Organ): lungs: 0.58 %IA/Organ
  Average (%IA/Organ): muscle: 8.08 %IA/Organ
  Average (%IA/Organ): pancreas: 0.25 %IA/Organ
  Average (%IA/Organ): small intestine: 0.70 %IA/Organ
  Average (%IA/Organ): spleen: 0.31 %IA/Organ
  Average (%IA/Organ): stomach: 0.20 %IA/Organ
  Average (%IA/Organ): tail: 2.59 %IA/Organ
  Average (%IA/Organ): urine: 0.65 %IA/Organ
  Average Hg-197g (%IA/g): bladder: 2.10 %IA/g
  Average Hg-197g (%IA/g): blood: 3.53 %IA/g
  Average Hg-197g (%IA/g): bone: 1.94 %IA/g
  Average Hg-197g (%IA/g): brain: 0.13 %IA/g
  Average Hg-197g (%IA/g): feces: 1.29 %IA/g
  Average Hg-197g (%IA/g): heart: 1.79 %IA/g
  Average Hg-197g (%IA/g): kidneys: 111.17 %IA/g
  Average Hg-197g (%IA/g): large intestine: 2.77 %IA/g
  Average Hg-197g (%IA/g): liver: 5.03 %IA/g
  Average Hg-197g (%IA/g): lungs: 3.83 %IA/g
  Average Hg-197g (%IA/g): muscle: 0.63 %IA/g
  Average Hg-197g (%IA/g): pancreas: 1.48 %IA/g
  Average Hg-197g (%IA/g): small intestine: 3.17 %IA/g
  Average Hg-197g (%IA/g): spleen: 3.93 %IA/g
  Average Hg-197g (%IA/g): stomach: 1.87 %IA/g
  Average Hg-197g (%IA/g): tail: 5.12 %IA/g
  Average Hg-197g (%IA/g): urine: 4.08 %IA/g
Hg-197m
  Animal 1 (%IA/g) m: bladder: 1.81 %IA/g
  Animal 1 (%IA/g) m: blood: 8.43 %IA/g
  Animal 1 (%IA/g) m: bone: 3.43 %IA/g
  Animal 1 (%IA/g) m: brain: 0.27 %IA/g
  Animal 1 (%IA/g) m: feces: 1.31 %IA/g
  Animal 1 (%IA/g) m: heart: 3.85 %IA/g
  Animal 1 (%IA/g) m: large intestine: 5.33 %IA/g
  Animal 1 (%IA/g) m: lungs: 8.68 %IA/g
  Animal 1 (%IA/g) m: muscle: 1.38 %IA/g
  Animal 1 (%IA/g) m: pancreas: 2.69 %IA/g
  Animal 1 (%IA/g) m: small intestine: 6.99 %IA/g
  Animal 1 (%IA/g) m: spleen: 8.59 %IA/g
  Animal 1 (%IA/g) m: stomach: 3.64 %IA/g
  Animal 1 (%IA/g) m: tail: 16.30 %IA/g
  Animal 1 (%IA/g) m: urine: 8.15 %IA/g
  Animal 2 (%IA/g) m: bladder: 4.08 %IA/g
  Animal 2 (%IA/g) m: blood: 5.94 %IA/g
  Animal 2 (%IA/g) m: bone: 2.79 %IA/g
  Animal 2 (%IA/g) m: brain: 0.15 %IA/g
  Animal 2 (%IA/g) m: feces: 0.59 %IA/g
  Animal 2 (%IA/g) m: heart: 2.24 %IA/g
  Animal 2 (%IA/g) m: large intestine: 3.94 %IA/g
  Animal 2 (%IA/g) m: liver: 10.33 %IA/g
  Animal 2 (%IA/g) m: lungs: 4.50 %IA/g
  Animal 2 (%IA/g) m: muscle: 0.74 %IA/g
  Animal 2 (%IA/g) m: pancreas: 1.94 %IA/g
  Animal 2 (%IA/g) m: small intestine: 4.20 %IA/g
  Animal 2 (%IA/g) m: spleen: 4.74 %IA/g
  Animal 2 (%IA/g) m: stomach: 2.42 %IA/g
  Animal 2 (%IA/g) m: tail: 7.26 %IA/g
  Animal 2 (%IA/g) m: urine: 5.31 %IA/g
  Animal 3 (%IA/g) m: bladder: 2.14 %IA/g
  Animal 3 (%IA/g) m: blood: 5.50 %IA/g
  Animal 3 (%IA/g) m: bone: 2.67 %IA/g
  Animal 3 (%IA/g) m: brain: 0.17 %IA/g
  Animal 3 (%IA/g) m: feces: 3.93 %IA/g
  Animal 3 (%IA/g) m: heart: 2.10 %IA/g
  Animal 3 (%IA/g) m: large intestine: 3.68 %IA/g
  Animal 3 (%IA/g) m: liver: 10.14 %IA/g
  Animal 3 (%IA/g) m: lungs: 5.07 %IA/g
  Animal 3 (%IA/g) m: muscle: 0.79 %IA/g
  Animal 3 (%IA/g) m: pancreas: 2.04 %IA/g
  Animal 3 (%IA/g) m: small intestine: 4.50 %IA/g
  Animal 3 (%IA/g) m: spleen: 4.18 %IA/g
  Animal 3 (%IA/g) m: stomach: 2.28 %IA/g
  Animal 3 (%IA/g) m: tail: 7.21 %IA/g
  Animal 3 (%IA/g) m: urine: 5.63 %IA/g
  Animal 4 (%IA/g) m: bladder: 4.20 %IA/g
  Animal 4 (%IA/g) m: blood: 4.96 %IA/g
  Animal 4 (%IA/g) m: bone: 2.78 %IA/g
  Animal 4 (%IA/g) m: brain: 0.17 %IA/g
  Animal 4 (%IA/g) m: feces: 1.53 %IA/g
  Animal 4 (%IA/g) m: heart: 2.14 %IA/g
  Animal 4 (%IA/g) m: large intestine: 3.97 %IA/g
  Animal 4 (%IA/g) m: liver: 10.31 %IA/g
  Animal 4 (%IA/g) m: lungs: 4.53 %IA/g
  Animal 4 (%IA/g) m: muscle: 0.81 %IA/g
  Animal 4 (%IA/g) m: pancreas: 2.24 %IA/g
  Animal 4 (%IA/g) m: small intestine: 3.96 %IA/g
  Animal 4 (%IA/g) m: spleen: 5.42 %IA/g
  Animal 4 (%IA/g) m: stomach: 2.56 %IA/g
  Animal 4 (%IA/g) m: tail: 5.98 %IA/g
  Animal 4 (%IA/g) m: urine: 5.02 %IA/g
  Average Hg-197m (%IA/g): bladder: 3.06 %IA/g
  Average Hg-197m (%IA/g): blood: 6.21 %IA/g
  Average Hg-197m (%IA/g): bone: 2.92 %IA/g
  Average Hg-197m (%IA/g): brain: 0.19 %IA/g
  Average Hg-197m (%IA/g): feces: 1.84 %IA/g
  Average Hg-197m (%IA/g): heart: 2.58 %IA/g
  Average Hg-197m (%IA/g): large intestine: 4.23 %IA/g
  Average Hg-197m (%IA/g): liver: 10.26 %IA/g
  Average Hg-197m (%IA/g): lungs: 5.70 %IA/g
  Average Hg-197m (%IA/g): muscle: 0.93 %IA/g
  Average Hg-197m (%IA/g): pancreas: 2.23 %IA/g
  Average Hg-197m (%IA/g): small intestine: 4.92 %IA/g
  Average Hg-197m (%IA/g): spleen: 5.73 %IA/g
  Average Hg-197m (%IA/g): stomach: 2.72 %IA/g
  Average Hg-197m (%IA/g): tail: 9.19 %IA/g
  Average Hg-197m (%IA/g): urine: 6.03 %IA/g
